The record followed here is US20260355199A1, “COMPOSITIONS AND METHODS FOR TREATING OR PREVENTING NONALCOHOLIC STEATOHEPATITIS (NASH), ANOREXIA, DEPRESSION, ENDOMETRIOSIS, AND OTHER DISEASES OR DISORDERS” (priority 2022, published 2026).

One assay concerns Agrp, Npy and Slc32a1. Description: Agrp, Npy and Slc32a1 mRNA in GT1-7 cells. Type of assay: cell-based, mouse. To be noted: 10 μM, 48 h. From the text: Mouse GT1-7 hypothalamic neuronal cell line (Sigma-Aldrich, SCC116) and human SH-SY5Y neuroblastoma cell line (Sigma Aldrich, 94030304) were purchased and cultured according to the manufacturers' instructions. Purified Ad-TET3 adenovirus (Ad-FLAG.h-TET3, ADV-225322, Vector Biolabs) expressing human TET3 from a CMV promoter and Ad-GFP control adenovirus (1060, Vector Biolabs) were purchased.
For Bobcat339 treatment (FIG. 15A and FIG. 15B), GT1-7 cells grown in 24-well plates at 2×10^5 cells/well were incubated with vehicle or Bobcat339 at a final concentration of 10 μM for 6 h, followed by RNA and protein extractions. […] Protein and RNA were isolated 48 h later and analyzed.
Total RNAs were extracted from neuronal cells or homogenized hypothalamic arcuate nucleus tissue samples using PureLink RNA Mini Kit (Ambion, 12183025). cDNA was synthesized using PrimeScript RT Reagent Kit in a 20 μl reaction containing 0.5-1 μg of total RNA. Real-time quantitative PCR was performed in a 15 μl reaction containing 0.5-1 μl of cDNA using SsoAdvanced Universal SYBR Green Supermix in a Bio-Rad iCycler. […]

Assay [1] relates to Lewis lung carcinoma (LLC). Description: Syngeneic LLC murine model of lung cancer. Type of assay: in vivo, mouse. The conditions noted are these: for body weight gain: day 16 vs. day 0. The method, then: Metastatic lung cancer was established by tail vein injection of Lewis lung carcinoma (LLC) (a mouse NSCLC cell line, Bertram et al., 1980, Cancer Lett, 11:63-73) cells into immunocompetent mice (FIG. 30A). Intravenous dosing of Bobcat339 (or vehicle) at 2.5 mg/kg every four days was initiated three days after tumor cell injection. The lungs were collected at day 20 from sacrificed mice. On day 16 as compared to day 0, mice in the Veh group lost ~5% of body weight, whereas those in the Bobcat339 group gained ~6% of body weight, which would be expected for a normal female mouse during this age period (FIG. 30B). […] Severe weight loss is frequently seen in patients with NSCLC, which is also associated with systemic inflammation and cancer cachexia (Staal-van den Brekel et al., 1995, J Clin Oncol, 13:2600-2605; Fredrix et al., 1991, Cancer, 68:1616-1621; Jatoi et al., 2001, Ann Thorac Surg, 72:348-351; Ulmann et al., 2019, Ann Nutr Metab, 75:223-230; Jouinot et al., 2020, Clin Nutr, 39:1893-1899).
Metastatic lung cancer was established by tail vein injection of Lewis lung carcinoma (LLC) (a mouse NSCLC cell line) (Bertram et al., 1980, Cancer Lett, 11:63-73) cells into immunocompetent mice (FIG. 29). Intravenous dosing of Bobcat339 (or vehicle) at 3 mg/kg every four days was initiated three days after tumor cell injection. The lungs were collected at day 20 from sacrificed mice.
LLC cells (2.5×10^5 cells/mouse) were injected into the tail vein of female C57BL/6J mice of 8-weeks old. Mice were randomly divided into vehicle (n=5) and Bobcat339 (n=5) groups. Three days after tumor cell injection, the vehicle group mice received tail vein injection of DMSO and the Bobcat339 group with Bobcat339 at the dose of 2.5 or 3 mg/kg body weight every four days. The animals were sacrificed 20 days after tumor cell injection and lungs were isolated and weighed. The whole lung was fixed in 4% paraformaldehyde overnight at 4 °C and embedded in paraffin for histological analysis and IHC. A second cohort of mice (n=5 in each group) treated as above were used for survival studies using moribund as an experimental endpoint.

The next assay has as its system THP-1 cells. The assay is described as follows: TUNEL assay in THP-1 cells. Type of assay: cell-based, human. The conditions noted are these: THP-1, 10 μM, 48 h. Here is the method:
For TET3 expression restoration experiments, cells seeded in 24-well plates were infected with Ad-GFP or Ad-TET3 at 4000 gc/cell. Following 16 h of infection, vehicle or Bobcat339 were added at a final concentration of 10 μM. Protein and RNA were isolated 48 hours later and analyzed.
These were performed using the In Situ Cell Death Detection Kit (Sigma Aldrich, 12156792910). Briefly, cells were fixed with 4% paraformaldehyde in PBS for 1 h at RT and rinsed with PBS, followed by permeabilization with 0.1% Triton X-100 in 0.1% sodium citrate for 2 min on ice. TUNEL reaction mixture was added and incubation was carried out at 37 °C for 60 min. DAPI was added to counter-stain the cells for 1 min. The slides were coverslipped and scoped using a Keyence BZ-X700 fluorescence microscope.

Where [2] appears, read: 2.5 mg/kg i.v. every four days, day 20.

Entries after “also recorded” stand apart in the source; their conditions may differ.

For the compound `Nc1nc(=O)n(-c2cccc(-c3ccccc3)c2)cc1Cl` [Bobcat339, 4-Amino-1-[1,1′-biphenyl]-3-yl-5-chloro-2(1H)-pyrimidinone], in the assay on Agrp, Npy and Slc32a1 (with TET3-expressing adenovirus (Ad-TET3)), the “Agrp, Npy and Slc32a1 mRNA levels” value is recorded as “not seen when the level of TET3 protein was restored; also recorded: not seen when TET3 was overexpressed”. For the same compound, the “Agrp, Npy and Slc32a1 mRNA levels” value in the assay on Agrp, Npy and Slc32a1 (without exogenous TET3) is “increased in the mRNA levels of both Agrp and Npy; also recorded: increases in the mRNA levels of Agrp, Npy and Slc32a1; also recorded: significant increases in the Agrp/Nyp mRNAs”. For the same compound, in assay [1] (2.5 mg/kg i.v. every four days), the food intake result is “no difference in food intake” and the body weight gain is recorded as ~ 6%. Besides, in assay [1] (setting [2]), the “LLC metastases in lungs” value was “Fewer LLC metastases” and the lung weight result is “significantly less”. Moreover, in assay [1] (3 mg/kg i.v. every four days), the “LLC metastases in lungs” value is on record as “fewer LLC metastases”, the food intake entry is reported as “no difference in food intake”, the lung weight entry was “significantly less” and the survival rate entry is “an increased survival rate”. Moreover, in assay [1] (3 mg/kg i.v. every four days), the body weight gain is given as ~ 6%. The “apoptosis (TUNEL)” value in the assay on THP-1 cells is “a significant increase in apoptotic cell death”.
